Experimental data from US10596259B2, “Tumor radiosensitization with monomethyl auristatin E (MMAE) and derivatives thereof” (The Regents of the University of California, priority 2015, dated 2020).
“Also recorded” adds a separate entry of the source. Non-standard residues stand in square brackets, D forms with d. Residues, ends and D or L forms follow the SMILES beside them. *: point of attachment. Dolaproine = CO[C@@H]([C@@H]1CCCN1)[C@@H](C)C(=O)O; Dil = CC[C@H](C)[C@H](NC)[C@@H](CC(=O)O)OC; X1 = C[C@@H](N*)[C@@H](O)c1ccccc1; NMeV = CN[C@H](C(=O)O)C(C)C

Assays:
779E cells = assay: Neutral comet assay (DNA double strand breaks); type: cell-based, Human; settings: MMAE overnight in combination with IR
Method: (§1) Cells were treated for 24 hours with indicated doses of MMAE and then irradiated with 6 Gy. Cells were harvested 15 minutes post IR, suspended in agarose gel and lysed per assay directions (Trevigen). Samples underwent electrophoresis under neutral conditions and were then stained with Sybr Green. Comet tails were counted in multiple fields (>60 cells per sample) and analyzed using CometScore (TriTek Corp).
(§2) Cells were treated for indicated length and doses of MMAE followed by 6 Gy. Cells were harvested 15 minutes after IR and underwent neutral electrophoresis (Trevigen). Comet tails were counted in multiple fields (>60 cells per sample) and analyzed using CometScore (TriTek Corp).

HCT-116 cells [1] = assay: Neutral comet assay (DNA double strand breaks); type: cell-based, Human
Method: as §1, §2

CAL-27 tumor xenografts = assay: In vivo tumor xenograft growth with or without IR; parameters: species or system mice; settings: day 0 iv: 0.5 nmoles antibody or 2 nmoles free MMAE; no IR
Method: CAL-27 tumor xenografts were established and tumor growth was measured with digital calipers. Tumor volume was calculated using the formula as ½*Length*Width^2. Mice were randomized into groups once the average tumor volume reached >150 mm^3. Mice were assigned to indicated groups in the Results. […] Free MMAE was injected on an equimolar basis to ACPP-cRGD-MMAE in final volume of 3% DMSO. MMAE doses and IR fractionation are as indicated in the Results.

XPA-1 cells = assay: Neutral comet assay (DNA double strand breaks); type: cell-based; settings: MMAE overnight, then IR
Method: as §2

PANC-1 cells = assay: Clonogenic survival assay with IR; type: cell-based, Human
Method: (§3) Cells were treated with 0, 1, 2, or 5 nM of MMAE for 24 hours and then irradiated with 0, 2, or 6 Gy. Following IR, cells were counted, re-plated at varying cell numbers in drug free media. Colonies were counted […]. Colonies were then fixed and stained with crystal violet to quantify colonies.
(§4) Cells were treated with MMAE for 24 hours and then irradiated with 0 to 8 Gy. Following IR, cells were replated in drug-free media. Colonies formed over 10 to 14 days and were counted.

HCT-116 cells [2] = assay: Clonogenic survival assay with IR; type: cell-based, Human
Method: as §3, §4

PANC-1 tumor xenografts = assay: In vivo tumor xenograft growth with or without IR; parameters: species or system mice
Method: HCT-116 or PANC-1 tumor xenografts were established and tumor growth was measured with digital calipers. Tumor volume was calculated using the formula as ½*Length*Width^2. Mice were randomized into groups once the average tumor volume reached 250 mm^3. Mice were assigned to groups: Vehicle, ACPP-cRGD-MMAE, fractionated IR or the combination. ACPP-cRGD-MMAE lyophilized powder was suspended in sterile deionized water just prior to tail vein injection. MMAE doses and IR fractionation are as indicated in the Results.
HCT-116 or PANC-1 tumor growth was measured with digital calipers. Tumor volume was calculated using the formula as ½×length×width^2. Mice were randomized into groups as indicated in Results once the average tumor volume reached >200 mm^3. Free MMAE was injected on an equimolar basis to ACPP-cRGD-MMAE.

Q: Which comet tail length (779E cells) does the source give for `CC[C@H](C)[C@@H]([C@@H](CC(=O)N1CCC[C@H]1[C@H](OC)[C@@H](C)C(=O)N[C@H](C)[C@@H](O)c1ccccc1)OC)N(C)C(=O)[C@@H](NC(=O)[C@@H](NC)C(C)C)C(C)C` [MMAE, monomethyl auristatin E] (H-[NMeV]V[Dil][Dolaproine]-X1) here?
A: The comet tail length was “significantly increased comet tail length”.

Q: What about the “comet tail length vs IR alone” value (HCT-116 cells [1]; 1 nM MMAE 24 hours, then 6 Gy) of the same compound?
A: Its value is “did not significantly increase; also recorded: did not increase DNA damage over IR alone”.

Q: And the “comet tail length vs IR alone” value (HCT-116 cells [1]; 5 nM MMAE 24 hours, then 6 Gy)?
A: Its value is “significant increase; also recorded: significantly increased comet tail length”.

Q: And the “comet tail length vs IR alone” value (HCT-116 cells [1]; 5 nmol/L MMAE for 2 or 4 hours, then IR)?
A: The value was “did not increase comet tail length”.

Q: What about the “comet tail length vs vehicle” value (HCT-116 cells [1]; non-irradiated, 1 or 5 nM MMAE overnight) of the same compound?
A: The value was “no significant effect”.

Q: What about the “tumor growth, non-irradiated tumors” value (CAL-27 tumor xenografts) of the same compound?
A: Its value is “delayed tumor growth”.

Q: And the comet tail length (XPA-1 cells)?
A: The comet tail length was “significantly increased comet tail length”.

Q: And the “clonogenic survival curve vs vehicle” value (PANC-1 cells; 2 nM MMAE overnight, then irradiated, re-plated drug free)?
A: The value was “loss of the shoulder region of the survival curve at 2 Gy; also recorded: increased tumor cell kill at doses as low as 2 Gy”.

Q: What about the colony formation (PANC-1 cells; 5 nM MMAE) of the same compound?
A: Its colony formation is “Too few colonies formed”.

Q: What about the “surviving fraction at 2 Gy (SF2) vs vehicle” value (PANC-1 cells; 1 or 2 nM MMAE overnight, 2 Gy) of the same compound?
A: The value was “significantly reduced”.

Q: What about the “surviving fraction at 2 Gy (SF2) vs vehicle” value (HCT-116 cells [2]; 1 nM MMAE overnight) of the same compound?
A: Its value is “not significantly different”.

Q: And the “clonogenic survival curve vs vehicle” value (HCT-116 cells [2]; 5 nM MMAE overnight, then irradiated, re-plated drug free)?
A: Its value is “loss of the shoulder region of the survival curve at 2 Gy; also recorded: increased tumor cell kill at doses as low as 2 Gy”.

Q: What about the “surviving fraction at 2 Gy (SF2) vs vehicle” value (HCT-116 cells [2]; 2 and 5 nM MMAE overnight) of the same compound?
A: Its value is “significant reduction”.

Q: And the “V(end)/V(0) ≤ 1, PANC-1, expt 1” value (PANC-1 tumor xenografts; day 30, + IR)?
A: The value was 0%.

Q: What about the “V(end)/V(0) ≤ 1, PANC-1, expt 1” value (PANC-1 tumor xenografts; day 30, no IR) of the same compound?
A: The value was 0%.

Q: What about the “tumor xenografts smaller than starting tumor volume” value (PANC-1 tumor xenografts; expt 1, day 20, no IR) of the same compound?
A: Its value is “None”.

Q: And the “tumor xenografts less than or equal to starting tumor volume” value (PANC-1 tumor xenografts; expt 1, day 20, with IR)?
A: Its value is 4/10.

Q: And the “tumor regression vs IR or free MMAE alone” value (PANC-1 tumor xenografts; expt 1: 6 nmoles days 0 and 1 plus IR 3 Gy days 1 and 2, listed as free MMAE)?
A: Its value is “increased tumor xenograft regression; also recorded: profound tumor xenograft regression”.

Q: What about the “average tumor volume relative to untreated controls” value (PANC-1 tumor xenografts; expt 1: iv days 0 and 1, 6 nmoles/day, no IR, day 30) of the same compound?
A: Its value is 75%.

Q: And the “tumor growth vs untreated control” value (PANC-1 tumor xenografts; expt 1: iv days 0 and 1, 6 nmoles/day, no IR, listed as free MMAE)?
A: The value was “modest, but statistically significant growth delay; also recorded: small but statistically significant growth delay”.
